Reference: ChEMBL document CHEMBL2074391, “Overlapping substrate specificities of cytochrome P450 3A and P-glycoprotein for a novel cysteine protease inhibitor” (Drug Metab Dispos, 1998)

What was measured:
ABCB1 (P-glycoprotein) [1] = biological target: T1, ABCB1 (P-glycoprotein) (Homo sapiens, UniProt P08183); assay: TP_TRANSPORTER: inhibition of photolabeling by Azidopine (Azidopine: 0.05 uM, K02: 10 uM) in membranes from CEM5k cells; format: functional, cell membranes, Membrane; conditions: probe Azidopine (0.05 uM)
[2] = biological target: ATP-dependent translocase ABCB1 (Homo sapiens, UniProt P08183); assay: TP_TRANSPORTER: transepithelial transport (basal to apical) in MDR1-expressing MDCK cells; format: functional, cell-based; conditions: dog
ABCB1 (P-glycoprotein) [3] = biological target: T1, ABCB1 (P-glycoprotein); assay: TP_TRANSPORTER: inhibition of photolabeling by LU-49888 (LU-49888: 0.1 uM, K02: 10 uM) in membranes from CEM5k cells; format: functional, cell membranes, Membrane; conditions: probe LU-49888 (0.1 uM)

T1 sequence (P08183 whole entry): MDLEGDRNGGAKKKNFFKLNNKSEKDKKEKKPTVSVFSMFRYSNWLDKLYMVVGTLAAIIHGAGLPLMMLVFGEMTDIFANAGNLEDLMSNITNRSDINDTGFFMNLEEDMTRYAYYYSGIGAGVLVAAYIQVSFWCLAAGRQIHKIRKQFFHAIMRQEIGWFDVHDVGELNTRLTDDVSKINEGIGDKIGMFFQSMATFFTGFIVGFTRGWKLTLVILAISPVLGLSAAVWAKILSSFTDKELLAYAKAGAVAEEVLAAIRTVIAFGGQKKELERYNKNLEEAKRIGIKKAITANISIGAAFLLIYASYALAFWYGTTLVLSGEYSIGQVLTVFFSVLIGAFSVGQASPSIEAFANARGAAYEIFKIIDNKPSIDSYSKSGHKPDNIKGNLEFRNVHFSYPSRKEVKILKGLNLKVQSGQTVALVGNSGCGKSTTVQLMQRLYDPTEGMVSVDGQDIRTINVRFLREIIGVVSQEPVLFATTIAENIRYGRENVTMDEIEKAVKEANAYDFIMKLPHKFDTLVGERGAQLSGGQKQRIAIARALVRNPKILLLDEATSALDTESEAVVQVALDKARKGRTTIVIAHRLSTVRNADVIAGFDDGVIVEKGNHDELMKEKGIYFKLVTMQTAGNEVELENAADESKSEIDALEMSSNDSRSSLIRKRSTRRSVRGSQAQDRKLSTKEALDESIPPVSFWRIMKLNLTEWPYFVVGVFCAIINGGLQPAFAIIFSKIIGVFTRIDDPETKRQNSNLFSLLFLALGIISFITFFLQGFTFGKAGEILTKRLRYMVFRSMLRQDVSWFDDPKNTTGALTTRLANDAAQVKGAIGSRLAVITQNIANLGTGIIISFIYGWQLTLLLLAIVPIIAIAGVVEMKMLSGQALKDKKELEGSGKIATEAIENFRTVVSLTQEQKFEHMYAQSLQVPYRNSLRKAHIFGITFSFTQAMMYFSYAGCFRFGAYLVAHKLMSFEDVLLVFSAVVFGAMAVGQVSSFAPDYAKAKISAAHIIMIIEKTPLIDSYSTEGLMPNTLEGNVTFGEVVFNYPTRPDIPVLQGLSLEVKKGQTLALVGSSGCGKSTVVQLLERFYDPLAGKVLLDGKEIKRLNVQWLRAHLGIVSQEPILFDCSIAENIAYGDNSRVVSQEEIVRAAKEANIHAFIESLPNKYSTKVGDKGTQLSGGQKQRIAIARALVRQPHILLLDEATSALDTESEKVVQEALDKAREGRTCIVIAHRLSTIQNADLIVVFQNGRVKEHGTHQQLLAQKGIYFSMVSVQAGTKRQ
Sequence of ATP-dependent translocase ABCB1 (P08183 whole entry): as above

O=C(N[C@H](/C=C/S(=O)(=O)c1ccccc1)CCc1ccccc1)[C@H](Cc1ccccc1)NC(=O)N1CCOCC1
inhibition at 10 µM (ABCB1 (P-glycoprotein) [1]): 74%
Activity [2]: substrate [+]
inhibition at 10 µM (ABCB1 (P-glycoprotein) [3]): 80%
